# The supplement of paper PMC10307832
# Columns and labels:
# Test in all cases: relative viability (nuclei count vs DMSO), 5 days (fraction); higher = more cells survive
# GSK126 + Foretinib = compound: CC[C@H](C)N1C=C(C2=C(C=C(C=C21)C3=CN=C(C=C3)N4CCNCC4)C(=O)NCC5=C(C=C(NC5=O)C)C)C [GSK126] + COc1cc2c(Oc3ccc(NC(=O)C4(C(=O)Nc5ccc(F)cc5)CC4)cc3F)ccnc2cc1OCCCN1CCOCC1 [Foretinib] (partner 0.25 µM)
# How it was run: (§1)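 Lung cancer cell lines in 1536-well plates got either a single drug or a fixed anchor-drug dose together with five library-drug doses (not always all listed) in √10 steps, by pin tool, on the day after seeding. Nuclei were counted after 5 days, and relative viability is the treated-to-vehicle ratio of nuclei counts. Values are medians of duplicate plates.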
# GSK126 + Pemetrexed = compound: CC[C@H](C)N1C=C(C2=C(C=C(C=C21)C3=CN=C(C=C3)N4CCNCC4)C(=O)NCC5=C(C=C(NC5=O)C)C)C [GSK126] + Nc1nc2[nH]cc(CCc3ccc(C(=O)N[C@@H](CCC(=O)O)C(=O)O)cc3)c2c(=O)[nH]1 [Pemetrexed] (partner 0.2 µM)
# How it was run: as §1
# MLN4924 + Dasatinib = compound: NS(=O)(=O)OC[C@@H]1C[C@@H](n2ccc3c(N[C@H]4CCc5ccccc54)ncnc32)C[C@@H]1O [MLN4924] + Cc1nc(Nc2ncc(C(=O)Nc3c(C)cccc3Cl)s2)cc(N2CCN(CCO)CC2)n1 [Dasatinib] (partner 0.075 µM)
# How it was run: as §1
# MLN4924 + Pemetrexed = compound: NS(=O)(=O)OC[C@@H]1C[C@@H](n2ccc3c(N[C@H]4CCc5ccccc54)ncnc32)C[C@@H]1O [MLN4924] + Nc1nc2[nH]cc(CCc3ccc(C(=O)N[C@@H](CCC(=O)O)C(=O)O)cc3)c2c(=O)[nH]1 [Pemetrexed] (partner 0.2 µM)
# How it was run: as §1
Cell Line,relative viability (GSK126 + Foretinib; first compound 0.08 µM),relative viability (GSK126 + Foretinib; first compound 0.253 µM),relative viability (GSK126 + Foretinib; first compound 0.8 µM),relative viability (GSK126 + Foretinib; first compound 2.53 µM),relative viability (GSK126 + Foretinib; first compound 8 µM),relative viability (GSK126 + Pemetrexed; first compound 0.08 µM),relative viability (GSK126 + Pemetrexed; first compound 0.253 µM),relative viability (GSK126 + Pemetrexed; first compound 0.8 µM),relative viability (GSK126 + Pemetrexed; first compound 2.53 µM),relative viability (GSK126 + Pemetrexed; first compound 8 µM),relative viability (MLN4924 + Dasatinib; first compound 0.04 µM),relative viability (MLN4924 + Dasatinib; first compound 0.1265 µM),relative viability (MLN4924 + Dasatinib; first compound 0.4 µM),relative viability (MLN4924 + Dasatinib; first compound 1.265 µM),relative viability (MLN4924 + Dasatinib; first compound 4 µM),relative viability (MLN4924 + Pemetrexed; first compound 0.04 µM),relative viability (MLN4924 + Pemetrexed; first compound 0.1265 µM),relative viability (MLN4924 + Pemetrexed; first compound 0.4 µM),relative viability (MLN4924 + Pemetrexed; first compound 1.265 µM),relative viability (MLN4924 + Pemetrexed; first compound 4 µM)
NCI-H3122,0.983,1.03,0.985,1.01,0.994,0.203,0.208,0.185,0.204,0.209,0.148,0.487,0.147,0.056,0.071,0.202,0.219,0.17,0.155,0.138
PC-3 [JPC-3],1.02,1.02,1.02,1.01,0.997,1.15,1.04,1.08,1.22,1.08,1.04,1.09,0.897,0.36,0.27,1.1,1.26,0.288,0.311,0.377
PC-14,0.914,0.886,0.924,0.908,0.918,0.131,0.133,0.135,0.155,0.148,0.304,0.294,0.195,0.0356,0.0313,0.157,0.128,0.0989,0.0654,0.0612
RERF-LC-KJ,0.955,0.893,0.852,0.897,0.825,0.462,0.465,0.443,0.462,0.461,0.717,0.661,0.266,0.206,0.242,0.523,0.426,0.18,0.208,0.224
SK-LU-1,0.899,0.788,0.795,0.973,0.964,1.06,0.938,0.956,0.953,1.06,0.217,0.249,0.12,0.117,0.141,0.94,0.829,0.26,0.194,0.212
SK-MES-1,1.01,0.913,0.88,0.834,0.976,1.01,0.996,0.979,0.941,1.09,0.584,0.626,0.256,0.121,0.147,0.968,0.87,0.415,0.227,0.247
SW 900,0.753,0.817,0.922,0.848,0.909,0.498,0.45,0.463,0.46,0.493,0.51,0.433,0.576,0.294,0.139,–,0.397,0.261,0.194,0.168
SW 1573,1.09,1.04,0.929,1.05,0.949,0.945,0.981,0.934,1.08,0.877,0.697,0.634,0.247,0.0507,0.0578,0.899,0.901,0.249,0.0884,0.0765
